13 molecules from patent publication US12215100B2, “Anticancer compounds” (Pharma Mar, S.A., priority 2018, dated 2025) can be followed below.

What all share (type): cell-based, human
One assay deals with PSN-1. As to the kind of experiment: SRB colorimetric cytotoxicity assay, PSN-1. The note with it: Homo sapiens, PSN1, 72 h, 72 hours treatment, pancreatic adenocarcinoma. The text has this:
(§1) The aim of this assay is to evaluate the in vitro cytostatic (ability to delay or arrest tumor cell growth) or cytotoxic (ability to kill tumor cells) activity of the samples being tested.
(§2) A colorimetric assay, using sulforhodamine B (SRB) reaction has been adapted to provide a quantitative measurement of cell growth and viability (following the technique described by V. Vichai and K. Kirtikara (2006) Nature Protoc. 1, 1112-1116.)
(§3) This form of assay employs 96-well cell culture microplates. All the cell lines used in this study were obtained from the American Type Culture Collection (ATCC), unless otherwise indicated, and derive from different types of human cancer.
(§4) Cells were maintained in Dulbecco's Modified Eagle Medium (DMEM) (for A549, HT-29 and MDA-MB-231) or RPMI (for PSN-1) supplemented with 10% Fetal Bovine Serum (FBS), 2 mM L-glutamine, 100 U/mL penicillin and 100 U/mL streptomycin at 37° C., 5% CO2 and 98% humidity. For the experiments, cells were harvested from subconfluent cultures using trypsinization and resuspended in fresh medium before counting and plating.
(§5) Cells were seeded in 96 well microtiter plates, at 5×10^3 cells per well in aliquots of 150 μL, and allowed to attach to the plate surface for 18 hours (overnight) in drug free medium. After that, one control (untreated) plate of each cell line was fixed (as described below) and used for time zero reference value. […] After 72 hours treatment, the antitumor effect was measured by using the SRB methodology: Briefly, cells were washed twice with PBS, fixed for 15 min in 1% glutaraldehyde solution at room temperature, rinsed twice in PBS, and stained in 0.4% SRB solution for 30 min at room temperature. Cells were then rinsed several times with 1% acetic acid solution and air-dried at room temperature. SRB was then extracted in 10 mM trizma base solution and the absorbance measured in an automated spectrophotometric plate reader at 490 nm. Effects on cell growth and survival were estimated by applying the NCI algorithm (Boyd M R and Pauli K D. Drug Dev Res. 1995, 34, 91-104).
(§6) Using the mean±SD of triplicates, a dose-response curve was automatically generated using nonlinear regression analysis to a 4-parameter logistic curve. Three reference parameters were calculated (NCI algorithm) by automatic interpolation: GI50=compound concentration that produces 50% cell growth inhibition, as compared to control cultures; TGI=total cell growth inhibition (cytostatic effect), as compared to control cultures, and LC50=compound concentration that produces 50% net cell killing (cytotoxic effect).

The next assay concerns A549. As to the kind of experiment: SRB colorimetric cytotoxicity assay, A549. The note with it: Homo sapiens, A549, 72 h, 72 hours treatment, lung carcinoma (NSCLC).
From the text: as §1, §2, §3, §4, §5, §6

A further assay has as its system MDA-MB-231. As to the kind of experiment: SRB colorimetric cytotoxicity assay, MDA-MB-231. The settings on record: Homo sapiens, MDA-MB-231, 72 h, 72 hours treatment, breast adenocarcinoma.
From the text: as §1, §2, §3, §4, §5, §6

A further assay concerns HT29. The assay is described as follows: SRB colorimetric cytotoxicity assay, HT29. The note with it: Homo sapiens, HT-29, 72 h, 72 hours treatment, colorectal adenocarcinoma.
From the text: as §1, §2, §3, §4, §5, §6

Some results are limits rather than exact numbers.

With `C=CCOc1cc([C@@H](CCC)NC(=O)[C@@]2(C)CSC(C(C)=O)=N2)oc(=O)c1` [Compound 133], the GI50 in the assay on PSN-1 came to 5.61 µM; in the assay on A549, 9.43 µM; in the assay with MDA-MB-231, 3.82 µM; in the assay with HT29, 4.59 µM.

On to `CCC[C@@H](NC(=O)[C@]1(C)CSC(/C(C)=N/OC(=O)CCCCCNC(=O)OC(C)(C)C)=N1)c1cc(OCC2CC2)cc(=O)o1` [Compound 166], for which the GI50 with PSN-1 stood at 0.0063 µM; with A549 it was 0.00473 µM; in the assay on MDA-MB-231 it was 0.00709 µM; in the assay on HT29, 0.00457 µM.

`CCC[C@@H](NC(=O)[C@]1(C)CSC(/C(C)=N/O)=N1)c1cc(O)cc(=O)[nH]1` [Compound 82]: the GI50 was determined as 0.355 µM with PSN-1, 1.64 µM in the assay on A549, 1.12 µM in the assay with MDA-MB-231 and 0.491 µM in the assay on HT29.

For `CCC[C@@H](NC(=O)[C@]1(C)CSC(/C(C)=N/O)=N1)c1cccc(=O)o1` [Compound 128], the GI50 amounted to 0.0882 µM in the assay with PSN-1, 0.0911 µM in the assay with A549, 0.285 µM in the assay on MDA-MB-231 and 0.105 µM with HT29.

With `C=CCOc1cc([C@@H](CCC)NC(=O)[C@]2(C)CSC(C(C)N)=N2)oc(=O)c1` (stereo partly shown) [Compound 117], the GI50 with PSN-1 turned out to be 4.88 µM; in the assay with A549, 3.02 µM; in the assay with MDA-MB-231, 4.65 µM; with HT29 it was 3.49 µM.

With `CCC[C@@H](NC(=O)[C@]1(C)CSC(/C(C)=N/O[C@H]2O[C@H](CO)[C@@H](O)[C@H](O)[C@@H]2O)=N1)c1cc(OCC2CC2)cc(=O)o1` [Compound 181], the GI50 with PSN-1 is 6.85 µM; with A549, over 17.1 µM; in the assay on MDA-MB-231, 6.34 µM; in the assay with HT29 it was 4.97 µM.

As to `CCCCCCCOc1cc([C@@H](CCC)NC(=O)[C@]2(C)CSC(C(C)=O)=N2)oc(=O)c1` [Compound 61], the GI50 was 1.73 µM with PSN-1, 1.84 µM in the assay on A549, 1.44 µM with MDA-MB-231 and 1.4 µM with HT29.

Turning to `CCC[C@@H](NC(=O)[C@]1(C)CSC(/C(C)=N/OCCCCO)=N1)c1cc(OC)cc(=O)o1` [Compound 147], the GI50 came to 0.243 µM in the assay with PSN-1, 0.148 µM with A549, 0.287 µM in the assay with MDA-MB-231 and 0.137 µM in the assay with HT29.

For `CCCCCCCCCCCCCCCCCOc1cc([C@@H](CCC)NC(=O)[C@]2(C)CSC(C(C)(OCC)OCC)=N2)oc(=O)c1` [Compound 49], the GI50 worked out at 1.46 µM in the assay on PSN-1, 1.34 µM in the assay on A549, 1.5 µM with MDA-MB-231 and 0.932 µM in the assay on HT29.

Regarding `C=CCOc1cc([C@@H](CCC)NC(=O)[C@]2(C)CSC(/C(C)=N/O[C@H]3O[C@H](COC(C)=O)[C@@H](OC(C)=O)[C@H](OC(C)=O)[C@H]3OC(C)=O)=N2)oc(=O)c1` [Compound 107], the GI50 in the assay on PSN-1 amounted to 0.061 µM; in the assay with A549, 0.0529 µM; in the assay with MDA-MB-231, 0.0786 µM; in the assay with HT29, 0.0529 µM.

Regarding `CCC[C@@H](NC(=O)[C@]1(C)COC(/C(C)=N/O)=N1)c1cc(OC)cc(=O)o1` [Compound 106], the GI50 was 1.56 µM in the assay with PSN-1, 1.01 µM in the assay with A549, 0.876 µM in the assay on MDA-MB-231 and 0.712 µM in the assay on HT29.

`CCC[C@@H](NC(=O)[C@@H]1CSC(C(C)=O)=N1)c1cc(OCC2CC2)cc(=O)o1` [Compound 177]: the GI50 was over 25.5 µM in the assay with PSN-1, 2.27 µM with A549, 1.61 µM in the assay with MDA-MB-231 and 1.55 µM with HT29.

Take `CCC[C@@H](NC(=O)[C@]1(C)CSC(/C(C)=N\O)=N1)c1cc(OC)cc(=O)o1` [Compound 1a]: the GI50 turned out to be 0.341 µM in the assay on PSN-1, 0.144 µM with A549, 0.204 µM in the assay on MDA-MB-231 and 0.152 µM in the assay on HT29.
